Measurements: patent publication US6464980B1, “MAGE-1 c-terminal immunogenic peptides” (Epimmune Inc., priority 1993, dated 2002)

Assays:
HLA-A3 class I molecule = HLA-A3 class I molecule (Homo sapiens, UniProt P04439); assay: class I binding assay, HLA-A3; conditions: Table 2 MAGE CTL targets, column A3; unit not given
Experimental: (§1) Peptides comprising the CTL epitopes are synthesized and the ability to bind appropriate MHC molecules is determined in assays using, for example, purified class I molecules and radioiodinated peptides and/or cells expressing empty class I molecules by, for instance, immunofluorescent staining and flow microfluorimetry, peptide-dependent class I assembly assays, and inhibition of CTL recognition by peptide competition. Those peptides that bind to the class I molecule are further chosen for their ability to serve as targets for CTLs derived from afflicted individuals, as well as for their capacity to induce primary in vitro or in vivo CTL responses that can give rise to CTL populations capable of reacting with tumor cells as therapeutic agents. Methods for determining allele-specific peptides and peptide motifs are described in co-pending commonly owned applications U.S. Ser. No. 027,146 and U.S. Ser. No. 027,746, which are incorporated herein by reference.
(§2) These peptides were then evaluated as to their capacity to bind to the appropriate class I molecules using specific binding assays as described in copending and commonly owned application U.S. Ser. No. 08/027,746, incorporated herein by reference.

HLA-A11 class I molecule = assay: class I binding assay, HLA-A11; set-up: species or system human; conditions: Table 2 MAGE CTL targets, column A11; unit not given
Experimental: as §1, §2

HLA-A2 class I molecule = HLA-A2 class I molecule (Homo sapiens, UniProt P04439, D140Y/D185E/D98H/E176V/E277Q/G131W/G231S/I119V/I121R/I166T/I218V/L300P/L318F/N151K/N90K/P208A/P217A/Q86G/Q94H/R138H/R169H/T345S); assay: class I binding assay, HLA-A2; conditions: Table 2 MAGE CTL targets, column A2; unit not given
Experimental: as §1, §2

HLA-A1 class I molecule = assay: class I binding assay, HLA-A1; set-up: species or system human; conditions: Table 2 MAGE CTL targets, column A1; unit not given
Experimental: as §1, §2

HLA-A24 class I molecule = assay: class I binding assay, HLA-A24; set-up: species or system human; conditions: Table 2 MAGE CTL targets, column A24; unit not given
Experimental: as §1, §2

[1] = target: HLA-A1 class I molecule (human); assay: class I binding assay as described in U.S. Ser. No. 08/027,746; format not described here
[2] = target: HLA-A24.1 class I molecule (human); assay: as above

Molecule | A3 (binding to class I molecule) (HLA-A3 class I molecule) | A11 (binding to class I molecule) (HLA-A11 class I molecule) | also measured
ALAETSYVK [Id 1072.38, MAGE-1 C-terminal peptide, position 271,9-mer, motif A03/11] | 0.3100 | 0.3600 | 
ALAETSYVKV [Id 1072.33] |  |  | A2 (binding to class I molecule) (HLA-A2 class I molecule): 0.0150
DLVQEKYLEY [1072 40, MAGE-1 peptide, position 242, 10-mer, motif A03] | 0.0320 | 0.0051 | 
ETSYVKVLEY [Id 1072.28, MAGE-1 C-terminal peptide, position 274, 10-mer, motif A01/11] |  |  | A1 (binding to class I molecule) (HLA-A1 class I molecule): 0.5600
LVQEKYLEY [Id 1072.42, MAGE-1 peptide, position 243,9-mer, motif A11] | 0.0026 | 0.0340 | 
SYVKVLEYVI [Id 1072.43, MAGE-1 C-terminal peptide, position 276, 10-mer, motif A24] |  |  | A24 (binding to class I molecule) (HLA-A24 class I molecule): 0.0360
TSYVKVLEY [Id 1072.29, MAGE-1 C-terminal peptide, position 275,9-mer, motif A01/11] |  |  | A1 (binding to class I molecule) (HLA-A1 class I molecule): 0.0990
TSYVKVLEY [Id 1072.36, MAGE-1 C-terminal peptide, position 275,9-mer, motif A03/11] | 0.7100 | 0.0100 | 
YVIKVSARV [Id 1072.34] |  |  | A2 (binding to class I molecule) (HLA-A2 class I molecule): 0.0140
TSYVKVLEY |  |  | binding value under column A1 (quantity not explained) [1]: 0.099
ETSYVKVLEY |  |  | binding value under column A1 (quantity not explained) [1]: 0.56
SYVKVLEYVI |  |  | binding value under column A24 (quantity not explained) [2]: 0.036

Continued, in another order:

A3 (binding to class I molecule) (HLA-A3 class I molecule) | A11 (binding to class I molecule) (HLA-A11 class I molecule) | Molecule | also measured
0.1800 | 0.2400 | RALAETSYVK (RALAETSYVKVK) [Id 1072.39, MAGE-1 C-terminal peptide, position 270, 10-mer, motif A03/11] | 
0.4300 | 0.0089 | RVRFFFPSLR [Id 1072.37, MAGE-1 C-terminal peptide, position 290, 10-mer, motif A03/11] | 
0.0190 | 0.0009 | YVIKVSARVR [Id 1072.41, MAGE-1 C-terminal peptide, position 283, 10-mer, motif A03] | 
